Measurements published in BigSolDB 2.1.

Details: in ethanol

| solubility (mole fraction) (298.15 K) | solubility (mole fraction) (303.15 K) | solubility (mole fraction) (308.15 K) | solubility (mole fraction) (313.15 K) | solubility (mole fraction) (318.15 K) | SMILES |
| --- | --- | --- | --- | --- | --- |
| 0.0214 | 0.0266 | 0.0331 | 0.0353 | 0.044 | N#Cc1ccc(C(=O)O)cc1 |
| 0.00493 | 0.00607 | 0.00746 | 0.00934 | 0.0116 | COc1cc(OC)cc(C(=O)O)c1 |
| 0.0581 | 0.0693 | 0.0817 | 0.0953 | 0.118 | O=C(O)c1ccc(Cl)cc1Cl |
| 0.0249 | 0.0302 | 0.0358 | 0.0432 | 0.0522 | CC(=O)Oc1ccc(C(=O)O)cc1 |
| 0.00334 | 0.00342 | 0.004 | 0.00441 | 0.00519 | Nc1cc(N)cc(C(=O)O)c1 |
